Test results published in patent publication US20240041042A1, “1-(PYRIDYL)-5-AZINYLPYRAZOLE DERIVATIVES, AND THEIR USE FOR CONTROL OF UNDESIRED PLANT GROWTH” (Bayer Aktiengesellschaft, priority 2020, published 2024).
Read-outs that look alike come from different tables or passages of the source.

Columns and labels:
Assay type in all cases: in vivo
[1] = tested on: Alopecurus myosuroides (ALOMY); experiment: Pre-emergence herbicidal action against ALOMY; conditions: scored visually after about 3 weeks, 100% = plants have died
Description: (§1) Seeds of monocotyledonous and dicotyledonous weed plants and crop plants are placed in plastic or organic planting pots and covered with soil. The compounds of the invention, formulated in the form of wettable powders (WP) or as emulsion concentrates (EC), are then applied to the surface of the covering soil as aqueous suspension or emulsion with addition of 0.5% additive at a water application rate equivalent to 600 l/ha. After the treatment, the pots are placed in a greenhouse and kept under good growth conditions for the trial plants. After about 3 weeks, the effect of the preparations is scored visually in comparison with untreated controls as percentages. For example, 100% activity=the plants have died, 0% activity=like control plants.
(§2) Tables A1 to A13 below show the effects of selected compounds of the general formula (I) on various harmful plants and at an application rate corresponding to 320 g/ha or lower, which were obtained by the experimental procedure mentioned above. The appendices “a”, “b” and “c” give differentiation by dosage used with otherwise the same harmful plants tested.

[2] = tested on: Amaranthus retroflexus (AMARE); experiment: Pre-emergence herbicidal action against AMARE; conditions: visual scoring after about 3 weeks vs untreated controls
Description: as §1, §2

Avena fatua (AVEFA) [3] = experiment: Pre-emergence herbicidal action against AVEFA; conditions: visual scoring after about 3 weeks vs untreated controls
Description: as §1, §2

[4] = tested on: Echinochloa crus-galli (ECHCG); experiment: Pre-emergence herbicidal action against ECHCG; conditions: dosage 320 g/ha
Description: as §1, §2

Lolium rigidum (LOLRI) [5] = experiment: Pre-emergence herbicidal action against LOLRI
Description: as §1, §2

[6] = tested on: Matricaria inodora (MATIN); experiment: Pre-emergence herbicidal action against MATIN
Description: as §1, §2

[7] = tested on: Polygonum convolvulus (POLCO); experiment: Pre-emergence herbicidal action against POLCO
Description: as §1, §2

Setaria viridis (SETVI) [8] = experiment: Pre-emergence herbicidal action against SETVI; conditions: dosage 320 g/ha
Description: as §1, §2

[9] = tested on: Verconica persica (VERPE); experiment: Pre-emergence herbicidal action against VERPE
Description: as §1, §2

Viola tricolor (VIOTR) [10] = experiment: Pre-emergence herbicidal action against VIOTR
Description: as §1, §2

[11] = tested on: Abutilon theophrasti (ABUTH); experiment: Post-emergence herbicidal action against ABUTH; conditions: 320 g/ha, visual rating about 3 weeks after treatment vs untreated controls (100% = plants have died, 0% = like control plants)
Method: (§3) Seeds of monocotyledonous and dicotyledonous weeds and crop plants are placed in sandy loam in plastic or organic planting pots, covered with soil and cultivated in a greenhouse under controlled growth conditions. 2 to 3 weeks after sowing, the test plants are treated at the one-leaf stage. The compounds of the invention, formulated in the form of wettable powders (WP) or as emulsion concentrates (EC), are then sprayed onto the green parts of the plants as aqueous suspension or emulsion with addition of 0.5% additive at a water application rate of 600 l/ha (converted). After the test plants have been kept in the greenhouse under optimum growth conditions for about 3 weeks, the activity of the preparations is rated visually in comparison to untreated controls. For example, 100% activity=the plants have died, 0% activity=like control plants.
(§4) Tables B1 to B13 below show the effects of selected compounds of the general formula (I) according to Table 1 on various harmful plants and at an application rate corresponding to 320 g/ha or lower, which were obtained by the experimental procedure mentioned above. The appendices “a”, “b” and “c” give differentiation by dosage used with otherwise the same harmful plants tested.

[12] = tested on: Alopecurus myosuroides (ALOMY); experiment: Post-emergence herbicidal action against ALOMY; conditions: visual rating about 3 weeks after treatment vs untreated controls (100% = plants have died, 0% = like control plants)
Method: as §3, §4

Avena fatua (AVEFA) [13] = experiment: Post-emergence herbicidal action against AVEFA; conditions: visual rating about 3 weeks after treatment
Method: as §3, §4

[14] = tested on: Echinochloa crus-galli (ECHCG); experiment: Post-emergence herbicidal action against ECHCG
Method: as §3, §4

Lolium rigidum (LOLRI) [15] = experiment: Post-emergence herbicidal action against LOLRI; conditions: dosage 320 g/ha
Method: as §3, §4

[16] = tested on: Pharbitis purpurea (PHBPU); experiment: Post-emergence herbicidal action against PHBPU
Method: as §3, §4

[17] = tested on: Polygonum convolvulus (POLCO); experiment: Post-emergence herbicidal action against POLCO; conditions: dosage 320 g/ha
Method: as §3, §4

Setaria viridis (SETVI) [18] = experiment: Post-emergence herbicidal action against SETVI; conditions: dosage 320 g/ha
Method: as §3, §4

[19] = tested on: Verconica persica (VERPE); experiment: Post-emergence herbicidal action against VERPE; conditions: 320 g/ha, VERPE
Method: as §3, §4

Viola tricolor (VIOTR) [20] = experiment: Post-emergence herbicidal action against VIOTR
Method: as §3, §4

Oryza sativa (ORYSA) = conditions: crop plant compatibility, 80 g/ha, effect in comparison to untreated controls
Method: as §3
(§5) The observed effects on selected crop plants are reported here in comparison to the untreated controls (values in %). The appendices “a”, “b” and “c” give differentiation by dosage used with otherwise the same crop plants tested.

Zea mays (ZEAMX) = conditions: crop plant compatibility, effect vs untreated controls
Method: as §3, §5

[21] = tested on: Amaranthus retroflexus (AMARE); experiment: Post-emergence herbicidal action against AMARE
Method: as §3, §4

[22] = 320 g/ha, visual rating about 3 weeks after treatment

SMILES	Pre-emergence action against ALOMY ([1]; 320 g/ha) [%]	Pre-emergence action against AMARE in % ([2]; 80 g/ha) [%]	Pre-emergence action against AMARE in % ([2]; 320 g/ha) [%]	Pre-emergence action against AVEFA in % (Avena fatua (AVEFA) [3]; 320 g/ha) [%]	Pre-emergence action against ECHCG in % [4] [%]	Pre-emergence action against LOLRI in % (Lolium rigidum (LOLRI) [5]; dosage 320 g/ha) [%]	Pre-emergence action against MATIN in % ([6]; dosage 320 g/ha) [%]	Pre-emergence action against POLCO in % ([7]; dosage 320 g/ha) [%]	Pre-emergence action against SETVI in % (Setaria viridis (SETVI) [8]) [%]	Pre-emergence action against VIOTR in % (Viola tricolor (VIOTR) [10]; 320 g/ha, Viola tricolor) [%]	Post-emergence action against ABUTH in % [11] [%]	Post-emergence action against ALOMY in % ([12]; 320 g/ha) [%]	Post-emergence action against AVEFA in % (Avena fatua (AVEFA) [13]; 320 g/ha) [%]	Post-emergence action against ECHCG in % ([14]; dosage 320 g/ha) [%]	Post-emergence action against LOLRI in % (Lolium rigidum (LOLRI) [15]) [%]	Post-emergence action against PHBPU in % ([16]; dosage 320 g/ha) [%]	Post-emergence action against POLCO in % [17] [%]	Post-emergence action against SETVI in % (Setaria viridis (SETVI) [18]) [%]	Post-emergence action against VERPE in % [19] [%]	Post-emergence action against VIOTR in % (Viola tricolor (VIOTR) [20]; 320 g/ha) [%]	other results
C[C@@H](Oc1nn(-c2nc(F)ccc2F)c(-c2ccc(F)nc2)c1Cl)C(=O)O [Example I-311]	90	80	90	90	100	90	90	90	100	100	80	90	80	90	80	90	80	80	90	80	Pre-emergence action against ALOMY ([1]; 80 g/ha): 80%; Pre-emergence action against LOLRI in % (Lolium rigidum (LOLRI) [5]; dosage 80 g/ha): 90%; Pre-emergence action against MATIN in % ([6]; dosage 80 g/ha): 80%; Pre-emergence action against POLCO in % ([7]; dosage 80 g/ha): 80%; Pre-emergence action against VERPE in % ([9]; dosage 80 g/ha): 80%; Pre-emergence action against VERPE in % ([9]; dosage 320 g/ha): 90%; Pre-emergence action against VIOTR in % (Viola tricolor (VIOTR) [10]; dosage 80 g/ha): 90%; Post-emergence action against ALOMY in % ([12]; 80 g/ha): 80%; Post-emergence action against ECHCG in % ([14]; dosage 80 g/ha): 80%; Post-emergence action against VIOTR in % (Viola tricolor (VIOTR) [20]; 80 g/ha): 80%; Post-emergence action against ORYSA in % (Oryza sativa (ORYSA)): 20%; Post-emergence action against ZEAMX in % (Zea mays (ZEAMX); 80 g/ha): 10%
CCOC(=O)[C@@H](C)Oc1nn(-c2ncccc2F)c(-c2ccc(F)nc2)c1F [Example I-320]	90	80	90	90	90	100	80	90	90	100	80	100	80	90	90	80	80	90	90	80	Post-emergence action against AMARE in % ([21]; 80 g/ha, visual rating about 3 weeks after treatment vs untreated controls (100% = plants have died, 0% = like control plants)): 80%; Post-emergence action against AMARE in % [21, 22]: 80%; Post-emergence action against ORYSA in % (Oryza sativa (ORYSA)): 0%; Post-emergence action against ZEAMX in % (Zea mays (ZEAMX); 80 g/ha): 0%; Post-emergence action against ZEAMX in % (Zea mays (ZEAMX); 320 g/ha): 20%
C[C@@H](Oc1nn(-c2nc(F)ccc2F)c(-c2ccc(F)nc2)c1Br)C(=O)O [Example I-333]	100	90	100	90	90	100	90	90	90	100	80	90	90	90	90	90	80	80	90	80	Pre-emergence action against ALOMY ([1]; 80 g/ha): 90%; Pre-emergence action against AVEFA in % (Avena fatua (AVEFA) [3]; 80 g/ha): 80%; Pre-emergence action against LOLRI in % (Lolium rigidum (LOLRI) [5]; dosage 80 g/ha): 80%; Pre-emergence action against MATIN in % ([6]; dosage 80 g/ha): 80%; Pre-emergence action against POLCO in % ([7]; dosage 80 g/ha): 90%; Pre-emergence action against VERPE in % ([9]; dosage 320 g/ha): 100%; Pre-emergence action against VIOTR in % (Viola tricolor (VIOTR) [10]; dosage 80 g/ha): 100%; Post-emergence action against ALOMY in % ([12]; 80 g/ha): 90%; Post-emergence action against AMARE in % [21, 22]: 80%; Post-emergence action against AVEFA in % (Avena fatua (AVEFA) [13]; 80 g/ha): 80%; Post-emergence action against ECHCG in % ([14]; dosage 80 g/ha): 80%; Post-emergence action against PHBPU in % ([16]; dosage 80 g/ha): 80%; Post-emergence action against ORYSA in % (Oryza sativa (ORYSA)): 20%
